Here are results for 6 molecules from patent US12156922B2, “Copper-containing complex and uses thereof” (Bar-Ilan University, priority 2017, dated 2024).

Where “and” joins values, the source holds several entries; their conditions need not be identical. Identical values can stand only once.

Data set [1] in a line: UV-visible titration of ATSM-Cu(II) complex with Cu(II) chelators and peptides (311 nm / 465 nm). The format is physicochemical. Here is the method:
The stability of the ATSM-Cu(II) complex was tested by using UV-visible spectrophotometry. […] In order to confirm the dissociation of ATSM-Cu(II) complex or the formation of copper complex with ligands or copper chelation by ligands, the effect of ligands on ATSM-Cu(II) was also tested using electron paramagnetic resonance (EPR) spectroscopy.
Stock solutions of CuCl2 (10 mM), 1,10-phenanthroline (10 mM), IDA (10 mM), and L-histidine (10 mM), NTA (5 mM) and Pep1 (5 mM) were prepared in ultrapure water (Milli-Q®). Stock solutions (1 mM) of HAGAH, HGGH and HTGMK peptides were prepared by dissolution in 0.1 M phosphate buffer (pH 7.4).
In order to facilitate the solubility of ATSM-Cu(II) complex, all the measurements were carried out in 30% DMSO in 0.1 M phosphate buffer (pH 7.4), at physiological conditions.

A short description of data set [2]: Reduction of Cu(II) to Cu(I) by ascorbate in the presence of peptide, followed by room temperature EPR intensity. The conditions noted are these: 2 mM ascorbate, peptide:ascorbate:Cu(II) 1:2:2; for Cu(II) reduced: within 4000 seconds, room temperature. As to the method: For measuring Cu(II) reduction by EPR spectroscopy, 20 μl of aqueous CuCl2 solution (2 mM) was added to 20 μl of a solution of a tested peptide (1 mM). At time zero, 20 μl of ascorbic acid solution (2 mM) was added, and the solution was mixed under anaerobic conditions. Cu(II) EPR signal intensity (at the maximum EPR signal intensity (g⊥ position)) was measured as a function of time.
The effects of the mutations of the Pep2-Pep5 peptides on the reduction of Cu(II) to Cu(I) was then investigated, by evaluating the room temperature (RT) change in EPR intensity over time, as Cu(I) is EPR-silent. Reduction of Cu(II) was effected in the presence of 2 mM ascorbate (a peptide:ascorbate:Cu(II) molar ratio of 1:2:2). For comparison, the reduction of free Cu(II) in buffer was also measured.

Data set [3] in a line: Low temperature CW-EPR of Cu(II) binding to Ctr1 N-terminal peptides in KPi buffer. The conditions noted are these: for percentage of Cu(II) bound to peptide (species other than 4O coordination): 130 K. As to the method: Continuous wave electron […] (CW-EPR) spectra were recorded using an Elexsys™ E500 spectrometer (Bruker) operating at 9.0-9.5 GHz, equipped with a super-high-sensitivity CW resonator. The spectra were recorded at room temperature (RT; 295±2 K) or at low temperature (130±5 K) at a microwave power of 20.0 mW, modulation amplitude of 1.0 G, time constant of 60 or 80 milliseconds, and receiver gain of 60.0 dB. The samples were measured in 0.8 mm or 1.0 mm capillary quartz tubes (VitroCom) at RT. Solutions that were measured at low temperature were mixed with 20% glycerol, and measured in a 3.0 mm or 4.0 mm Wilmad® quartz tube.
Simulation of CW-EPR spectra was performed using MATLAB, with the EasySpin™ toolbox, according to procedures described by Stoll & Schweiger [J Magn Reson 2006, 178:42-55]. In fitting a spectrum to a simulation, emphasis is placed on small peaks of in the region of under 3000G.
The abovementioned peptides Pep1-Pep5 were investigated by CW-EPR measurements at low temperature (130 K), in the presence of different concentrations of Cu(II). The data were subsequently incorporated into simulations using the EasySpin™ tool box, and the first coordination sphere of Cu(II) was determined for each peptide, according to procedures described in Peisach & Blumberg [Arch Biochem Biophys 1974, 165:691-708]. The experimental data and comparisons with simulated data (including parameters derived from the simulations) for peptides Pep1-Pep5, at a variety of peptide:Cu(II) molar ratios, are presented in FIGS. 7-11. FIG. 12 presents the experimental data and comparisons with simulated data for peptides Pep1-Pep5 at a peptide:Cu(II) molar ratio of 1:1.
The simulation for each peptide took into account two Cu(II) species. The first species corresponds to free Cu(II) ions in water, where Cu(II) is coordinated to four oxygen atoms (4O coordination), with g∥=2.39±0.005, A∥=154±2.0 G. The second species corresponds to Cu(II) that is bound to the peptide with coordination of 3N1O or 2N2O.

Where [4] appears, read: peptide:Cu(II) molar ratio 1:1.4.
Setting [5] is: peptide:Cu(II) molar ratio 1:0.4.
Setting [6] is: peptide:Cu(II) molar ratio 1:0.6.
Where [7] appears, read: peptide:Cu(II) molar ratio 1:0.8.

Regarding `CN=C([S-])N/N=C(C)/C(C)=N/NC([S-])=NC.[Cu+2]` [ATSM-Cu(II), Cu(II)-diacetyl-bis(N4-methylthiosemicarbazone)], the “stability of ATSM-Cu(II) complex in the presence of Cu(II) ligands” value in data set [1] (overall conclusion from UV-visible and EPR) is reported as “may be unstable in a cellular environment”.

For the molecule “MDHSHHMGMSYMDS (Pep1 peptide amino acid sequence)”, the “Cu(II) reduced” value in data set [2] is listed as “about 5%”. Moreover, the “Cu(II) bound to peptide” value in data set [3] (low Cu(II) concentrations) is listed as “substantially all Cu(II) is bound”. The “percentage of Cu(II) bound to peptide (species other than 4O coordination)” value (“percentage of Cu(II) bound to peptide” for short) was found to be 80% in data set [3] (peptide:Cu(II) molar ratio 1:1), 70% in data set [3] (setting [4]), 70% in data set [3] (peptide:Cu(II) molar ratio 1:2) and 70% in data set [3] (peptide:Cu(II) molar ratio 1:3).

For “MDHSHAMGMSYMDS (Pep5 peptide amino acid sequence)”, the “reduction of Cu(II) compared with wild-type peptide” value in data set [2] is reported as “more rapid than in the presence of Pep1”. The “percentage of Cu(II) bound to peptide” value in data set [3] (setting [5]) is listed as 75%; in data set [3] (setting [6]), 75%; in data set [3] (setting [7]), 75%; in data set [3] (setting [4]), 40%; in data set [3] (peptide:Cu(II) molar ratio 1:2), 40%; in data set [3] (peptide:Cu(II) molar ratio 1:3), 30%.

Consider “MDHSHHMAMSYMDS (Pep2 peptide amino acid sequence)”, for which the “Cu(II) reduced” value in data set [2] was “about 5%”. In addition, the “percentage of Cu(II) bound to peptide” value in data set [3] (setting [5]) was 60%; in data set [3] (setting [6]) it was 80%; in data set [3] (setting [7]), 85% and 80%; in data set [3] (peptide:Cu(II) molar ratio 1:1), 70%; in data set [3] (setting [4]), 60%; in data set [3] (peptide:Cu(II) molar ratio 1:2), 62%. Also, the “percentage of Cu(II) bound to peptide” value in data set [3] (peptide:Cu(II) molar ratio 1:3) stood at 58%.

As to “MDHSAHMGMSYMDS (Pep4 peptide amino acid sequence)”, the “reduction of Cu(II) compared with free Cu(II) ions” value in data set [2] is recorded as “more rapid than reduction of free Cu(II) ions”. In data set [2], the “reduction of Cu(II) compared with wild-type peptide” value was “more rapid than in the presence of Pep1”. Besides, the “percentage of Cu(II) bound to peptide” value was 70% in data set [3] (setting [5]); 80% in data set [3] (setting [6]); 85% in data set [3] (setting [7]); 90% in data set [3] (peptide:Cu(II) molar ratio 1:1); 92% in data set [3] (setting [4]); 94% in data set [3] (peptide:Cu(II) molar ratio 1:2). For the same molecule, the “percentage of Cu(II) bound to peptide” value in data set [3] (peptide:Cu(II) molar ratio 1:3) is 97% and 100%.

Turning to HTGMK, in data set [1] (30% DMSO in 0.1 M phosphate buffer (pH 7.4)), the “molar equivalents sufficient/needed to remove copper from the ATSM-Cu(II) complex” value was “one molar equivalent”.
